One molecule from patent US12220390B2, “Mirdametinib treatment” (SpringWorks Therapeutics, Inc., priority 2022, dated 2025) can be followed below.

This data set relates to patients ≥2 and <25 years with brain cancer. Description: Phase I/II trial of single agent mirdametinib in children, adolescents and young adults with brain cancer. It counts as in vivo, human. How it is done: A multi-arm phase I/II trial of mirdametinib is to be conducted in patients ≥2 and <25 years with brain cancer. Phase I requires participants have no prior exposure to MEK inhibitors and recurrent/progressive disease with biopsy-proven evidence of MAPK pathway activation. Three escalating dose levels (2 mg/m^2/dose BID, 2.5 mg/m^2/dose BID and 3 mg/m^2/dose BID) are planned using a rolling 6 design. The median age enrolled in the study is 10 years old (3-21).

Setting [1] is: patients with brain cancer, 2-3 mg/m^2/dose BID.

For `O=C(NOC[C@H](O)CO)c1ccc(F)c(F)c1Nc1ccc(I)cc1F` (single isomer, unassigned) [mirdametinib], where the note is “all three dose levels (2, 2.5 and 3 mg/m^2/dose BID), continuous dosing, patients with brain cancer”, the dose-limiting toxicities entry is reported as “No dose-limiting toxicities”. Moreover, the tolerability entry (dosed continuously in patients with brain cancer) is “well-tolerated”. Further, under setting [1], the “MEK related retinopathy or cardiopathy” value is listed as “No MEK related retinopathy or cardiopathy is observed” and the disease progressions result is “No disease progressions”.
